Laboratory results published in ChEMBL document CHEMBL4619812, “Discovery of Potent and Orally Available Bicyclo[1.1.1]pentane-Derived Indoleamine-2,3-dioxygenase 1 (IDO1) Inhibitors” (ACS Med Chem Lett, 2020).

Tests used:
[1] = Unbound intrinsic clearance in rat hepatocytes; type: ADME, cell-based, Hepatocyte
[2] = Unbound intrinsic clearance in human hepatocytes; type: ADME, cell-based, Hepatocyte
[3] = Unbound clearance in rat; type: ADME; details: in vivo
[4] = molecular target: Tryptophan 2,3-dioxygenase (Homo sapiens, UniProt P48775); assay: Inhibition of TDO in human SW48 cells using L-tryptophan as substrate incubated for 48 hrs by fluorescent microplate reader assay; type: cell-based
[5] = Elimination half life in rat; type: ADME; details: in vivo, read-out: beta t1/2 (converted)
[6] = Apparent permeability in MDCK2 cells; type: ADME, cell-based, Canis lupus familiaris, MDCK-II; details: dog, MDCK
[7] = Clearance in rat; type: ADME; details: in vivo
[8] = Oral bioavailability in rat; type: ADME, organism-based; details: in vivo
[9] = Elimination half life in dog; type: ADME, Canis lupus familiaris; details: in vivo, read-out: beta t1/2 (converted)
[10] = molecular target: T1, Nuclear receptor subfamily 1 group I member 2 (Homo sapiens, UniProt O75469); assay: Activation of PXR (unknown origin)
T1 sequence (O75469 whole entry): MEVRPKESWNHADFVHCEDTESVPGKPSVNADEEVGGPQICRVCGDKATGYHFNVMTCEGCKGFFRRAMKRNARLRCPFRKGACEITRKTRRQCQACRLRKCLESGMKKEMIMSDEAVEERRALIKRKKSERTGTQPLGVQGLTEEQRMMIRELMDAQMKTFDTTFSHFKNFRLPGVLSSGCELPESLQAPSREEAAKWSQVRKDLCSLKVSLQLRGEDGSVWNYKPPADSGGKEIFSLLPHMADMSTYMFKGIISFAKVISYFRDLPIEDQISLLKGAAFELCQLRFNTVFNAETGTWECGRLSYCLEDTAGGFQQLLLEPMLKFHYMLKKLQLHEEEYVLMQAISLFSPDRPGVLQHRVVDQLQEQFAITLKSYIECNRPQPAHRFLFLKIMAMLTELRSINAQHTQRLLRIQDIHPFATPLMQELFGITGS

[11] = Unbound intrinsic clearance in dog hepatocytes; type: ADME, cell-based, Canis lupus familiaris, Hepatocyte
[12] = molecular target: CYP450 (Homo sapiens, UniProt P04798+P05177+P05181+P08684+P10632+P10635+P11509+P11712+P13584+P20813+P20815+P20853+P24462+P24903+P33260+P33261+P51589+P78329+P98187+Q02928+Q08477+Q16678+Q16696+Q5TCH4+Q6VVX0+Q7Z449+Q8TAV3+Q96SQ9+Q9HB55); assay: Inhibition of CYP450 (unknown origin); type: ADME, protein assay
[13] = molecular target: MDR1 (ABCB1, P-glycoprotein) (Homo sapiens, UniProt P08183); assay: Substrate activity at human MDR1 expressed in pig LLC-PK1 cells assessed as efflux ratio of permeability across basolateral to apical over apical to basolateral membrane at 1 mM after 3 hrs by LC/MS/MS analysis; design: dose or concentration left out as unconfirmed
[14] = Oral bioavailability in dog; type: ADME, organism-based, Canis lupus familiaris; details: in vivo
[15] = Clearance in dog; type: ADME, Canis lupus familiaris; details: in vivo
[16] = molecular target: Indoleamine 2,3-dioxygenase 1 (Homo sapiens) (UniProt P14902); details: Blood
Description: Inhibition of IDO1 in human whole blood stimulated with IFNgamma/LPS using L-tryptophan/kynurenine as substrate incubated for 15 mins prior to IFNgamma/LPS stimulation and further incubated for 18 hrs followed by isotope labeled L-tryptophan/kynurenine addition on day 2 by LC/MS-MS analysis

[17] = Unbound clearance in dog; type: ADME, Canis lupus familiaris; details: in vivo
[18] = molecular target: CYP3A4 (Homo sapiens, UniProt P08684); assay: Inhibition of CYP3A4 (unknown origin) assessed as TDI shift ratio
Sequence of CYP3A4 (P08684 whole entry): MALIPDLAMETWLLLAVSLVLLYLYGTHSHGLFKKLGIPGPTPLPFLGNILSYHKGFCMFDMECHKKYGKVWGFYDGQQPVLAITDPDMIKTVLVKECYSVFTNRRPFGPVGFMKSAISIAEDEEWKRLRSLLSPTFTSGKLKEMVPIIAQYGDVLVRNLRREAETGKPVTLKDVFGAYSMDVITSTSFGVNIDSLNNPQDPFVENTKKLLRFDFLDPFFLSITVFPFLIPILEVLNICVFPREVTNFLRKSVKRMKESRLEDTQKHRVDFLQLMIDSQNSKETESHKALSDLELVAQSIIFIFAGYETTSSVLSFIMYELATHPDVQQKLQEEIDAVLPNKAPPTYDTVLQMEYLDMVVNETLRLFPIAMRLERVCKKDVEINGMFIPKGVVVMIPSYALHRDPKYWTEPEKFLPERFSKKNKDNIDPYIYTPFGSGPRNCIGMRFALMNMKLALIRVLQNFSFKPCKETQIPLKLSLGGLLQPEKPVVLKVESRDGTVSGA

Sequence of Tryptophan 2,3-dioxygenase (P48775 whole entry): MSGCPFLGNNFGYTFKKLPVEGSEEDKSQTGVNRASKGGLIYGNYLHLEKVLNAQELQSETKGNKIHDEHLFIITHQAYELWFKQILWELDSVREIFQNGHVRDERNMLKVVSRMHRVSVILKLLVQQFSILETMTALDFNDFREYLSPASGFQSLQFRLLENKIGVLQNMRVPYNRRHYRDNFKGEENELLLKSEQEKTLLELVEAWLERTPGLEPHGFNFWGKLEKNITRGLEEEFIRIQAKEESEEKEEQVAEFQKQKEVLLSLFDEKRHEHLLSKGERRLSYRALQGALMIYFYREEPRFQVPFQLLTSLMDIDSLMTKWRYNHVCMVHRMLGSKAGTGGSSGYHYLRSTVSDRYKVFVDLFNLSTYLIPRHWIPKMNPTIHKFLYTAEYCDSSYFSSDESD
Sequence of MDR1 (ABCB1, P-glycoprotein) (P08183 whole entry): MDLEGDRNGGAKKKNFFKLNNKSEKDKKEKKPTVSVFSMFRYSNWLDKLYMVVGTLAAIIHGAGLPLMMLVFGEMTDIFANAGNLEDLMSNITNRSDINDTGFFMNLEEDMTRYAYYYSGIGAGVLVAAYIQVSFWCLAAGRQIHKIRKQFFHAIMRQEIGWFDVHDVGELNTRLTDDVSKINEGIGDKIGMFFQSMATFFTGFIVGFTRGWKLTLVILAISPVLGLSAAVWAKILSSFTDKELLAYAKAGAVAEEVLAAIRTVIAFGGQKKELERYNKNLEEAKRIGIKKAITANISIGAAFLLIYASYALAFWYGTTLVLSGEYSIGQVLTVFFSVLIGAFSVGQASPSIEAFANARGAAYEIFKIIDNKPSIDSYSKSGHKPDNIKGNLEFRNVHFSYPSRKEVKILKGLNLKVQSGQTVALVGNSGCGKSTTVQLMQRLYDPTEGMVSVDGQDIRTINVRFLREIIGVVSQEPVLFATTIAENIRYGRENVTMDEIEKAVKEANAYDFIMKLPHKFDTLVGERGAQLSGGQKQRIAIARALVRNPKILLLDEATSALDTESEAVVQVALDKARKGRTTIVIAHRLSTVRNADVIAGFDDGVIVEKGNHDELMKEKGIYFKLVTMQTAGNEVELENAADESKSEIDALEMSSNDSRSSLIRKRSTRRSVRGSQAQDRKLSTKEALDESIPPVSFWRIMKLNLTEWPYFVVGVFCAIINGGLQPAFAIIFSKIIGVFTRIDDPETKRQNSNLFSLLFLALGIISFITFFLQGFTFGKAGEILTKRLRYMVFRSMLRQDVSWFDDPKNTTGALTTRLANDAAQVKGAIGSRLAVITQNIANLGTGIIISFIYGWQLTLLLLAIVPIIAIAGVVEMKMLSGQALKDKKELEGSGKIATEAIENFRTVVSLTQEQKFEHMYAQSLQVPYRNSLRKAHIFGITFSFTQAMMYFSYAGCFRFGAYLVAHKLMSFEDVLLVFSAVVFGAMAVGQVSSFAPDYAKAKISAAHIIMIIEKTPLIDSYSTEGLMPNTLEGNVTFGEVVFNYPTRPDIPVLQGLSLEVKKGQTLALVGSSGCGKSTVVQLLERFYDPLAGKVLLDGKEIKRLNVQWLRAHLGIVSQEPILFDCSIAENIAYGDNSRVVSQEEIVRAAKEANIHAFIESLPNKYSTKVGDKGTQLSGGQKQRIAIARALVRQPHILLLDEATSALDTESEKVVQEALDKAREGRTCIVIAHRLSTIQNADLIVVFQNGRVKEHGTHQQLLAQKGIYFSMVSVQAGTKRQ
Sequence of Indoleamine 2,3-dioxygenase 1 (Homo sapiens) (P14902 whole entry, looked up): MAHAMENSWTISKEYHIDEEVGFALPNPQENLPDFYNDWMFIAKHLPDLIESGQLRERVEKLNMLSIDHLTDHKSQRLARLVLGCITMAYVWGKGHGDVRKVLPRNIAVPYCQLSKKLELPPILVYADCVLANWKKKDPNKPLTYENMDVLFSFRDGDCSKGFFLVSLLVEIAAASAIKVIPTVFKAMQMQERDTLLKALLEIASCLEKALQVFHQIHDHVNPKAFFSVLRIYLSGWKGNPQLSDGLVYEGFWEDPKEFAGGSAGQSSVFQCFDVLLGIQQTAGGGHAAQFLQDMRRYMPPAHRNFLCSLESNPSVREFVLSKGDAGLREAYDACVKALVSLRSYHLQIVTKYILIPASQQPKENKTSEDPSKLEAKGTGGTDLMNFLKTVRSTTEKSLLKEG

Compound | CL free [1] | CL free [2] | further results
O=C(Nc1ccc(C2(C(=O)Nc3ccc(F)cc3)CCC2)cc1)c1cccc(Cl)c1 | 1935 mL/min/kg |  | CL free [3]: 4371 mL/min/kg
C[C@H](C(=O)Nc1ccc(F)cc1)C12CC(NC(=O)c3ccc(F)c(Cl)c3)(C1)C2 | 295 mL/min/kg | 56 mL/min/kg | 
C[C@H](C(=O)Nc1ccc(F)cc1)C12CC(NC(=O)c3cccc(Cl)c3)(C1)C2 | 247 to 248 mL/min/kg | 48 mL/min/kg | IC50 [4]: > 10 µM; half-life [5]: 3.7 h; Papp [6]: 32 ×10⁻⁶ cm/s; clearance [7]: 5 mL/min/kg; bioavailability [8]: 110%; CL free [3]: 194 mL/min/kg
CC(C)(C(=O)Nc1ccc(F)cc1)C12CC(NC(=O)c3cccc(Cl)c3)(C1)C2 | 197 mL/min/kg | 51 mL/min/kg | 
CC(C)OC(=O)NC12CC([C@H](C)C(=O)Nc3ccc(F)cc3)(C1)C2 | 2925 mL/min/kg | 369 mL/min/kg | 
C[C@H](C(=O)Nc1ccc(F)cc1)C12CC(NC(=O)c3ccc(F)c(F)c3)(C1)C2 | 195 mL/min/kg | 52 mL/min/kg | half-life [9]: 36 h; IC50 [4]: > 10 µM; EC50 [10]: > 30 µM; CL free [11]: 121 mL/min/kg; half-life [5]: 11 h; IC50 [12]: > 50 µM; efflux ratio at 3 h [13]: 1.3; bioavailability [14]: 79%; clearance [15]: 1.1 mL/min/kg; Papp [6]: 29 ×10⁻⁶ cm/s; clearance [7]: 2 mL/min/kg; IC90 [16]: 0.912 µM; CL free [17]: 22 mL/min/kg; IC50 shift [18]: 1; bioavailability [8]: 83%; CL free [3]: 37 mL/min/kg

Continued, in another order:

CL free [1] | CL free [2] | Compound | further results
133 mL/min/kg | 34 mL/min/kg | C[C@H](C(=O)Nc1ccc(Cl)nc1)C12CC(NC(=O)c3cccc(Cl)c3)(C1)C2 | 
1494 mL/min/kg | 1544 mL/min/kg | C[C@H](C(=O)Nc1ccc(F)cc1)C12CC(Nc3ncnc4ccccc34)(C1)C2 | 
4457 mL/min/kg | 2357 mL/min/kg | C[C@H](C(=O)Nc1ccc(F)cc1)C12CC(NC(=O)OC3CCCC3)(C1)C2 | 
765 mL/min/kg | 591 mL/min/kg | C[C@H](C(=O)Nc1ccc(F)cc1)C12CC(NC(=O)c3cccc(Cl)c3F)(C1)C2 | 
549 mL/min/kg | 723 mL/min/kg | C[C@H](C(=O)Nc1ccc(F)cc1)C12CC(Nc3ncnc4ccc(F)cc34)(C1)C2 | 
441 mL/min/kg | 56 mL/min/kg | C[C@H](C(=O)Nc1ccc(F)cc1)C12CC(NC(=O)c3cc(F)cc(Cl)c3)(C1)C2 | 
150 mL/min/kg | 47 mL/min/kg | C[C@H](C(=O)Nc1ccc(Cl)cc1)C12CC(NC(=O)c3cccc(Cl)c3)(C1)C2 | 
644 mL/min/kg | 82 mL/min/kg | C[C@H](C(=O)Nc1ccc(F)cc1)C12CC(NC(=O)c3cccc(Cl)n3)(C1)C2 | 
